Literature values in US20100112053A1, “GASTRIC RETENTION-TYPE SUSTAINED-RELEASE LEVODOPA PREPARATION” (Kissei Pharmaceutical Co., Ltd., priority 2007, published 2010).
Like-named read-outs stand apart in the source and are kept apart here.

[1] = under a weakly acidic to basic condition

Structure (SMILES) | Solubility [1] | Solubility (under an acidic condition)
C[C@@](Cc1ccc(O)c(O)c1)(NN)C(=O)O [carbidopa] | low | high
N[C@@H](Cc1ccc(O)c(O)c1)C(=O)O [levodopa] | low | high
